# Data from patent US10881653B2, “Tricyclic compounds and their use in the treatment of cancer” (The United States of America, as represented by the …, priority 2015, dated 2021).
# Where a name gives a salt, the structure may show the parent alone. Read-outs that look alike come from different tables or passages of the source.
# Columns and labels:
# [1] = test system: FaDu cells; conditions: mouse, in vivo, 15 mg/kg
# Experimental: Fox Chase male severe combined immunodeficiency (SCID, Charles River, #250) mice were inoculated with 1×10^6 FaDu cells in PBS at a pre-shaved region located at the anterior lateral thoracic wall. After 13 days of growth, tumors were caliper measured and treatments were initiated. Mice were injected with 15 mg/kg of the compound of Example 1, or vehicle a total of nine times in a five-day span via i.v. tail injection. Upon the final dose, injections were performed subcutaneously (s.c.) due to pronounced hematomas at the tail injection site. Mouse health status was monitored daily, weight was measured, and tumor volume was recorded from caliper measurements. […] Tumor growth was normalized to day 0 caliper measurements, and treatment with the compound of Example 1 (N=6, p<0.01) was compared to vehicle (N=4) using a repeated measures ANOVA with a Dunnett's multiple comparison post test.
# [2] = biological target: T1, recombinant thioredoxin reductase 1 (TrxR1) (Homo sapiens, UniProt Q16881); experiment: Inhibition of recombinant TrxR1 (DTNB assay); format: biochemical
# T1 sequence (Q16881 1-649): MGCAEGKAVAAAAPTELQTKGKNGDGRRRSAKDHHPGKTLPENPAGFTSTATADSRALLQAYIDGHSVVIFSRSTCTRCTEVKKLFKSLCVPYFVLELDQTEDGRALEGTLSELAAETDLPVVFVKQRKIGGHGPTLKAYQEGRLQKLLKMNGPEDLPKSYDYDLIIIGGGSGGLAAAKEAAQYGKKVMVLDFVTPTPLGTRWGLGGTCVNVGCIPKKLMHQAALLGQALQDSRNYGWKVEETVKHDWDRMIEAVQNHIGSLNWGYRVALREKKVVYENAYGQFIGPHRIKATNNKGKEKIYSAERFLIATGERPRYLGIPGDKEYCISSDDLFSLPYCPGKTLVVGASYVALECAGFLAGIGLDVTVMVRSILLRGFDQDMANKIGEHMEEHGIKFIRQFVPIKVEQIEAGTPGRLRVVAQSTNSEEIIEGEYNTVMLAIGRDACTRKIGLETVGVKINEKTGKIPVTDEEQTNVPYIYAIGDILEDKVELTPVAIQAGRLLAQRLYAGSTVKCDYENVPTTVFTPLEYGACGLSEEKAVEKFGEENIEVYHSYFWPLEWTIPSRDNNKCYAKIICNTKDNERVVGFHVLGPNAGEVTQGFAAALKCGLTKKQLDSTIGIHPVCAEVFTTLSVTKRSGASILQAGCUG
# In short: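 Human TrxR1 (15 nM) or GR (2 nM) preincubated 15 min with compound, 250 μM NADPH, 0.1 mg/ml BSA in 50 mM Tris pH 7.5, 2 mM EDTA, 1% DMSO. Reaction started with 2.5 mM DTNB (TrxR1, A412) or 1 mM GSSG (GR, A340). Percent activity relative to DMSO and no-enzyme blanks.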
# [3] = test system: SF-295; experiment: Cell growth inhibition GI50; format: cell-based; conditions: Homo sapiens, CNS Cancer
# Experimental: (§1) Cell lines were plated 2000 cells/well in 96-well black optical plates in the presence of 10% FBS media containing 25 nM selenite. The following day cells were treated with various concentrations of the compound of Example 1 (0.1% DMSO final) and incubated for 72 hrs. After the incubation Cell-Quanti Blue reagent was added to each well and incubated for additional 3 hrs. Fluorescence was read ex:530 nm/em:590 nm, and percent of viability was determined using DMSO vehicle and no cell (blank) controls.
# (§2) Further results obtained in similar experiments were as indicated below (GI50 refers to concentration of compound yielding 50% growth inhibition; E denotes an exponent to the base 10).
# [4] = test system: CCRF-CEM; experiment: Cell growth inhibition GI50; format: cell-based; conditions: Homo sapiens, Leukemia
# Experimental: as §1, §2
# [5] = test system: OVCAR-8; experiment: Cell growth inhibition GI50; format: cell-based; conditions: Homo sapiens, Ovarian Cancer
# Experimental: as §1, §2
# [6] = test system: RPMI-8226; experiment: Cell growth inhibition GI50; format: cell-based; conditions: Homo sapiens, Leukemia
# Experimental: as §1, §2
# [7] = test system: UACC-257; experiment: Cell growth inhibition GI50; format: cell-based; conditions: Homo sapiens, Melanoma
# Experimental: as §1, §2
# [8] = test system: A498; experiment: Cell growth inhibition GI50; format: cell-based; conditions: Homo sapiens, Renal Cancer
# Experimental: as §1, §2
# [9] = test system: SK-OV-3; experiment: Cell growth inhibition GI50; format: cell-based; conditions: Homo sapiens, Ovarian Cancer
# Experimental: as §1, §2
# [10] = test system: MOLT-4; experiment: Cell growth inhibition GI50; format: cell-based; conditions: Homo sapiens, Leukemia
# Experimental: as §1, §2
# [11] = test system: OVCAR-3; experiment: Cell growth inhibition GI50; format: cell-based; conditions: Homo sapiens, Ovarian Cancer
# Experimental: as §1, §2
# [12] = test system: HS 5781; experiment: Cell growth inhibition GI50; format: cell-based; conditions: Breast Cancer
# Experimental: as §1, §2
# [13] = test system: UO-31; experiment: Cell growth inhibition GI50; format: cell-based; conditions: Homo sapiens, Renal Cancer
# Experimental: as §1, §2
# [14] = test system: KM12; experiment: Cell growth inhibition GI50; format: cell-based; conditions: Homo sapiens, Colon Cancer
# Experimental: as §1, §2
# [15] = test system: HT29; experiment: Cell growth inhibition GI50; format: cell-based; conditions: Homo sapiens, HT-29, Colon Cancer
# Experimental: as §1, §2
# [16] = test system: SW-620; experiment: Cell growth inhibition GI50; format: cell-based; conditions: Homo sapiens, Colon Cancer
# Experimental: as §1, §2
# [17] = test system: HOP-62; experiment: Cell growth inhibition GI50; format: cell-based; conditions: Homo sapiens, Non-Small Cell Lung Cancer
# Experimental: as §1, §2
# [18] = test system: HOP-92; experiment: Cell growth inhibition GI50; format: cell-based; conditions: Homo sapiens, Non-Small Cell Lung Cancer
# Experimental: as §1, §2
# [19] = test system: HCT-15; experiment: Cell growth inhibition GI50; format: cell-based; conditions: Homo sapiens, Colon Cancer
# Experimental: as §1, §2
# [20] = test system: HCC-2998; experiment: Cell growth inhibition GI50; format: cell-based; conditions: Homo sapiens, Colon Cancer
# Experimental: as §1, §2
# [21] = test system: MDA-N; experiment: Cell growth inhibition GI50; format: cell-based; conditions: Homo sapiens, Melanoma
# Experimental: as §1, §2
# [22] = test system: DU-145; experiment: Cell growth inhibition GI50; format: cell-based; conditions: Homo sapiens, Prostate Cancer
# Experimental: as §1, §2
# [23] = test system: NCI/ADR-RES; experiment: Cell growth inhibition GI50; format: cell-based; conditions: Homo sapiens, Ovarian Cancer
# Experimental: as §1, §2
# [24] = test system: HL-60(TB); experiment: Cell growth inhibition GI50; format: cell-based; conditions: Homo sapiens, Leukemia
# Experimental: as §1, §2
smiles,measurement,setting,value
"O=C1C=C[C@H]2[C@@H]3C(=O)N(c4ccccc4)C(=O)[C@@H]3[C@@H]1N2Cc1ccccc1 (relative stereo) [Example 1, exo-11-Benzyl-4-phenyl-4,11-diazatricyclo[5.3.1.0^2,6]undec-9-ene-3,5,8-trione Trifluoroacetate]",Signs of general or systemic toxic effects,[1],no overt signs of general or systemic toxic effects in normal cells or tissues
same,IC50,"[2]; Biological Example 1, 15 nM TrxR1, 250 μM NADPH, 15 minutes incubation, read-out: TrxR inhibition",2140 nM
same,IC50,"[2]; Biological Example 4, assays of Biological Example 1, read-out: TrxR Inhibition",2190 nM
same,GI50,[3],6.41 µM
same,GI50,[4],942 nM
same,GI50,[5],2880 nM
same,GI50,[6],1590 nM
same,GI50,[7],3.22 µM
same,GI50,[8],8.57 µM
same,GI50,[9],13.2 µM
same,GI50,[10],1720 nM
same,GI50,[11],3.44 µM
same,GI50,[12],3.51 µM
same,GI50,[13],3.42 µM
same,GI50,[14],2560 nM
same,GI50,[15],1790 nM
same,GI50,[16],1860 nM
same,GI50,[17],1380 nM
same,GI50,[18],3.66 µM
same,GI50,[19],1740 nM
same,GI50,[20],7.94 µM
same,GI50,[21],3.14 µM
same,GI50,[22],9.66 µM
same,GI50,[23],2550 nM
same,GI50,[24],1170 nM
